Experimental data reported in article PMC8034185, “The rumen eukaryotome is a source of novel antimicrobial peptides with therapeutic potential” (BMC Microbiology, 2021).
Converted amounts (≈) assume the structure as drawn. Ends that are not written are not given here.

Key:
[1] = system: A. baumannii IMI/MER-R; assay: microbe, parasite or virus in culture; type: cell-based, Acinetobacter baumannii; settings: imipenem/meropenem resistant; modified broth microdilution, cation-adjusted Mueller Hinton broth, inoculum 5 × 10^5 CFU/mL, 18 h, quadruplicate; highest concentration tested 512 μg/mL
Experimental: (§1) MICs against a range of clinically important Gram-positive and Gram-negative bacteria strains including methicillin-sensitive Staphylococcus aureus (MSSA) RN4220 epidemic methicillin-resistant S. aureus-15 (EMRSA-15), methicillin-resistant S. aureus USA300 (MRSA USA300), Bacillus cereus, Enterococcus faecalis JH2–2, Escherichia coli K12, Salmonella enterica serovar Typhimurium SL1344, P. aeruginosa PAO1, and hospital isolates of Acinetobacter baummannii were determined in quadruplicate by a modified microdilution broth method [64] with a final bacterial inoculum concentration of 5 × 10^5 CFU/mL utilised as the test organisms. Cation-adjusted Mueller Hinton (MH) broth was innoclated overnight with a single colony of the tested microorganisms, subsequently grown for 16–24 h with shaking at 225 rpm, and further diluted in the same broth to a final concentration of 5 × 10^5 CFU/mL. The bacterial suspension was added to sterile U-bottomed 96-well plates, and the peptides and control antibiotics to be tested were dissolved in sterile distilled water and serially diluted in the wells. The MICs were recorded as the lowest peptide concentration that inhibited growth after incubation for 18 h [65].

[2] = system: S. aureus USA300; assay: microbe, parasite or virus in culture; type: cell-based, Staphylococcus aureus
Experimental: as §1

[3] = system: A. baumannii DSMZ 30007; assay: microbe, parasite or virus in culture; type: cell-based, Acinetobacter baumannii; settings: modified broth microdilution, cation-adjusted Mueller Hinton broth, inoculum 5 × 10^5 CFU/mL, 18 h, quadruplicate; highest concentration tested 512 μg/mL
Experimental: as §1

[4] = system: E. coli K12; assay: microbe, parasite or virus in culture; type: cell-based, Escherichia coli; settings: modified broth microdilution, cation-adjusted Mueller Hinton broth, inoculum 5 × 10^5 CFU/mL, 18 h, quadruplicate; highest concentration tested 512 μg/mL
Experimental: as §1

[5] = system: A. baumannii S27379 Sen; assay: microbe, parasite or virus in culture; type: cell-based, Acinetobacter baumannii; settings: sensitive hospital isolate; modified broth microdilution, cation-adjusted Mueller Hinton broth, inoculum 5 × 10^5 CFU/mL, 18 h, quadruplicate; highest concentration tested 512 μg/mL
Experimental: as §1

[6] = system: P. aeruginosa PAO1; assay: microbe, parasite or virus in culture; type: cell-based, Pseudomonas aeruginosa; settings: modified broth microdilution, cation-adjusted Mueller Hinton broth, inoculum 5 × 10^5 CFU/mL, 18 h, quadruplicate; highest concentration tested 512 μg/mL
Experimental: as §1

[7] = system: P. aeruginosa H174; assay: microbe, parasite or virus in culture; type: cell-based, Pseudomonas aeruginosa; settings: modified broth microdilution, cation-adjusted Mueller Hinton broth, inoculum 5 × 10^5 CFU/mL, 18 h, quadruplicate; highest concentration tested 512 μg/mL
Experimental: as §1

[8] = system: S. aureus EMRSA-15; assay: microbe, parasite or virus in culture; type: cell-based, Staphylococcus aureus
Experimental: as §1

[9] = system: Sal. Tyhimurium (SL1344); assay: microbe, parasite or virus in culture; type: cell-based, Salmonella enterica serovar Typhimurium; settings: modified broth microdilution, cation-adjusted Mueller Hinton broth, inoculum 5 × 10^5 CFU/mL, 18 h, quadruplicate; highest concentration tested 512 μg/mL
Experimental: as §1

[10] = system: Ent. faecalis (JH2–2); assay: microbe, parasite or virus in culture; type: cell-based, Enterococcus faecalis; settings: 18 h
Experimental: as §1

[11] = system: S. aureus ATCC 33591; assay: microbe, parasite or virus in culture; type: cell-based, Staphylococcus aureus
Experimental: as §1

[12] = system: A. baumannii S15785 OXA-23/0XA-50; assay: microbe, parasite or virus in culture; type: cell-based, Acinetobacter baumannii; settings: modified broth microdilution, cation-adjusted Mueller Hinton broth, inoculum 5 × 10^5 CFU/mL, 18 h, quadruplicate; highest concentration tested 512 μg/mL
Experimental: as §1

[13] = system: B. cereus; assay: microbe, parasite or virus in culture; type: cell-based, Bacillus cereus; settings: 18 h
Experimental: as §1

[14] = system: S. aureus MSSA (RN4220); assay: microbe, parasite or virus in culture; type: cell-based, Staphylococcus aureus; settings: 18 h
Experimental: as §1

[15] = system: EMRSA-15 cells; assay: Time-kill assay; type: cell-based, Staphylococcus aureus; settings: for Time dependent kill, Mean Log CFU/ml / Time dependent kill, CFU/ml / Time dependent kill, Log CFU/ml: 3x MIC (24 ug/ml); for Time dependent kill, Mean Log CFU/ml: mean of 3 independent replicates
Experimental: Time-dependent kill assays were adapted from standard procedures and were all performed as previously using exponential-phase cultures of EMRA-15 MRSA and USA300 grown in MHB (1 × 10^6 CFU/mL). […] Experiments were performed in triplicates, and CFU/mL was calculated at different time points after overnight incubation of inoculated agar plates (MHA) at 37 °C. Kill curves were plotted with CFU/mL against time (h).

[16] = modified broth microdilution, cation-adjusted Mueller Hinton broth, inoculum 5 × 10^5 CFU/mL, 18 h, quadruplicate, highest concentration tested 512 μg/mL
[17] = modified broth microdilution, cation-adjusted Mueller Hinton broth, inoculum 5 × 10^5 CFU/mL, quadruplicate, highest concentration tested 512 μg/mL

KGLTVKFKVKN [Lub_376]
Minimum Inhibitory Concentration, A. baumannii IMI/MER-R [1]: > 512 µg/mL | Minimum Inhibitory Concentration, S. aureus USA300 [2, 16]: > 512 µg/mL | Minimum Inhibitory Concentration, A. baumannii DSMZ 30007 [3]: > 512 µg/mL | Minimum Inhibitory Concentration, E. coli K12 [4]: > 512 µg/mL | Minimum Inhibitory Concentration, A. baumannii S27379 Sen [5]: > 512 µg/mL | Minimum Inhibitory Concentration, P. aeruginosa PAO1 [6]: > 512 µg/mL | Minimum Inhibitory Concentration, P. aeruginosa H174 [7]: > 512 µg/mL | Minimum Inhibitory Concentration, S. aureus EMRSA-15 [8, 16]: > 512 µg/mL | Minimum Inhibitory Concentration, Sal. Tyhimurium [9]: > 512 µg/mL | Minimum Inhibitory Concentration, Ent. faecalis [10, 17]: > 512 µg/mL | Minimum Inhibitory Concentration, S. aureus ATCC 33591 [11, 16]: > 512 µg/mL | Minimum Inhibitory Concentration, A. baumannii S15785 OXA-23/0XA-50 [12]: > 512 µg/mL | Minimum Inhibitory Concentration, B. cereus [13, 17]: > 512 µg/mL | Minimum Inhibitory Concentration, S. aureus MSSA [14, 17]: > 512 µg/mL

CN[C@H](CC(C)C)C(=O)N[C@H]1C(=O)N[C@@H](CC(N)=O)C(=O)N[C@H]2C(=O)N[C@H]3C(=O)N[C@H](C(=O)N[C@H](C(=O)O)c4cc(O)cc(O)c4-c4cc3ccc4O)[C@H](O)c3ccc(c(Cl)c3)Oc3cc2cc(c3O[C@@H]2O[C@H](CO)[C@@H](O)[C@H](O)[C@H]2O[C@H]2C[C@](C)(N)[C@H](O)[C@H](C)O2)Oc2ccc(cc2Cl)[C@H]1O [Vancomycin]
MIC ([2]; Staphylococcus aureus, USA300, 18 h, read-out: Minimum Inhibitory Concentration, S. aureus USA300): 2 µg/mL (≈ 1.38 µM) | MIC ([8]; Staphylococcus aureus, EMRSA15, 18 h, read-out: Minimum Inhibitory Concentration, S. aureus EMRSA-15): 2 µg/mL (≈ 1.38 µM) | Time dependent kill, Mean Log CFU/ml ([15]; 0 min): 6.839 Log CFU/ml | Time dependent kill, Mean Log CFU/ml ([15]; 10 min): 6.579 Log CFU/ml | Time dependent kill, Mean Log CFU/ml ([15]; 30 min): 6.503 Log CFU/ml | Time dependent kill, Mean Log CFU/ml ([15]; 60 min): 6.404 Log CFU/ml | Time dependent kill, Mean Log CFU/ml ([15]; 120 min): 5.884 Log CFU/ml | Time dependent kill, Mean Log CFU/ml ([15]; 240 min): 5.168 Log CFU/ml | Time dependent kill, Mean Log CFU/ml ([15]; 360 min): 4.661 Log CFU/ml | Time dependent kill, Mean Log CFU/ml ([15]; 1440 min): 0 Log CFU/ml | Time dependent kill, CFU/ml ([15]; T0 min, Exp1): 7200000 CFU/ml | Time dependent kill, CFU/ml ([15]; T0 min, Exp2): 7600000 CFU/ml | Time dependent kill, CFU/ml ([15]; T0 min, Exp3): 6000000 CFU/ml | Time dependent kill, Log CFU/ml ([15]; T0 min, Exp3): 6.778 Log CFU/ml | Time dependent kill, CFU/ml ([15]; T10 min, Exp1): 3800000 CFU/ml | Time dependent kill, Log CFU/ml ([15]; T10 min, Exp1): 6.58 Log CFU/ml | Time dependent kill, CFU/ml ([15]; T10 min, Exp2): 3600000 CFU/ml | Time dependent kill, Log CFU/ml ([15]; T10 min, Exp2): 6.5563 Log CFU/ml | Time dependent kill, CFU/ml ([15]; T10 min, Exp3): 4000000 CFU/ml | Time dependent kill, Log CFU/ml ([15]; T10 min, Exp3): 6.602 Log CFU/ml | Time dependent kill, CFU/ml ([15]; T30 min, Exp1): 2800000 CFU/ml | Time dependent kill, Log CFU/ml ([15]; T30 min, Exp1): 6.447 Log CFU/ml | Time dependent kill, CFU/ml ([15]; T30 min, Exp2): 4800000 CFU/ml | Time dependent kill, Log CFU/ml ([15]; T30 min, Exp2): 6.681 Log CFU/ml | Time dependent kill, CFU/ml ([15]; T30 min, Exp3): 2400000 CFU/ml | Time dependent kill, Log CFU/ml ([15]; T30 min, Exp3): 6.38 Log CFU/ml | Time dependent kill, CFU/ml ([15]; T60 min, Exp1): 2000000 CFU/ml | Time dependent kill, Log CFU/ml ([15]; T60 min, Exp1): 6.301 Log CFU/ml | Time dependent kill, CFU/ml ([15]; T60 min, Exp2): 3400000 CFU/ml | Time dependent kill, Log CFU/ml ([15]; T60 min, Exp2): 6.531 Log CFU/ml | Time dependent kill, CFU/ml ([15]; T60 min, Exp3): 2400000 CFU/ml | Time dependent kill, Log CFU/ml ([15]; T60 min, Exp3): 6.38 Log CFU/ml | Time dependent kill, CFU/ml ([15]; T120 min, Exp1): 800000 CFU/ml | Time dependent kill, Log CFU/ml ([15]; T120 min, Exp1): 5.903 Log CFU/ml | Time dependent kill, CFU/ml ([15]; T120 min, Exp2): 700000 CFU/ml | Time dependent kill, Log CFU/ml ([15]; T120 min, Exp2): 5.8451 Log CFU/ml | Time dependent kill, CFU/ml ([15]; T120 min, Exp3): 800000 CFU/ml | Time dependent kill, Log CFU/ml ([15]; T120 min, Exp3): 5.903 Log CFU/ml | Time dependent kill, CFU/ml ([15]; T240 min, Exp1): 80000 CFU/ml | Time dependent kill, Log CFU/ml ([15]; T240 min, Exp1): 4.9031 Log CFU/ml | Time dependent kill, CFU/ml ([15]; T240 min, Exp2): 100000 CFU/ml | Time dependent kill, Log CFU/ml ([15]; T240 min, Exp2): 5 Log CFU/ml | Time dependent kill, CFU/ml ([15]; T240 min, Exp3): 400000 CFU/ml | Time dependent kill, Log CFU/ml ([15]; T240 min, Exp3): 5.602 Log CFU/ml | Time dependent kill, CFU/ml ([15]; T360 min, Exp1): 60000 CFU/ml | Time dependent kill, Log CFU/ml ([15]; T360 min, Exp1): 4.778 Log CFU/ml | Time dependent kill, CFU/ml ([15]; T360 min, Exp2): 40000 CFU/ml | Time dependent kill, Log CFU/ml ([15]; T360 min, Exp2): 4.602 Log CFU/ml | Time dependent kill, CFU/ml ([15]; T360 min, Exp3): 40000 CFU/ml | Time dependent kill, Log CFU/ml ([15]; T360 min, Exp3): 4.602 Log CFU/ml | Time dependent kill, CFU/ml ([15]; T1440 min, Exp1): 0 CFU/ml | Time dependent kill, Log CFU/ml ([15]; T1440 min, Exp1): 0 Log CFU/ml | Time dependent kill, CFU/ml ([15]; T1440 min, Exp2): 0 CFU/ml | Time dependent kill, Log CFU/ml ([15]; T1440 min, Exp2): 0 Log CFU/ml | Time dependent kill, CFU/ml ([15]; T1440 min, Exp3): 0 CFU/ml | Time dependent kill, Log CFU/ml ([15]; T1440 min, Exp3): 0 Log CFU/ml | reduction in viable cells, time-kill ([15]; EMRSA-15, 3× MIC, after 6 h): ≥ 10^3 CFU/mL | MIC ([10]; Enterococcus faecalis, read-out: Minimum Inhibitory Concentration, Ent. faecalis): 2 µg/mL (≈ 1.38 µM) | MIC ([11]; Staphylococcus aureus, ATCC33591, 18 h, read-out: Minimum Inhibitory Concentration, S. aureus ATCC 33591): 2 µg/mL (≈ 1.38 µM) | MIC ([13]; Bacillus cereus, read-out: Minimum Inhibitory Concentration, B. cereus): 2 µg/mL (≈ 1.38 µM) | MIC ([14]; Staphylococcus aureus, MSSA, read-out: Minimum Inhibitory Concentration, S. aureus MSSA): 2 µg/mL (≈ 1.38 µM)
